From patent US8332025B2, “Method and system for detecting electrophysiological changes in pre-cancerous and cancerous tissue and epithelium” (Epi-Sci, LLC, priority 2005, dated 2012)
Read-outs that look alike come from different tables or passages of the source.

Experiments:
distal colon = assay: Transepithelial potential (VT) of colon during treatment; format: in vivo, CF1 mice; details: administered over the same period (four weeks)
colonocyte cell membrane = details: cited from earlier work
[1] = system: apical K+ channels of human colonic mucosa; assay: Short circuit current of human colonic epithelium ex-vivo (FIG. 12); details: 30 mM mucosal; normal colon; 0.1 mM amiloride; elevated serosal K+
Procedure: The potassium permeability of the apical membrane of human colonic mucosa (P^Ka) was determined in surgical specimens of controls and grossly normal-appearing mucosa obtained 10-30 cm proximal to colorectal adenocarcinomas. The mucosa was, mounted in Using chambers and the basolateral, membrane resistance and voltage were nullified by elevating the K^+ in the serosal bathing solution. The apical sodium (Na^+) conductance was blocked with 0.1 mM amiloride. This protocol reduces the equivalent circuit model of the epithelium to an apical membrane conductance and electromotive force in parallel with the paracellular pathway as has been verified by microelectrode studies. […] In cancer-bearing colon the reduction in Isc is to −65 μA/cm^2. The serosal bath was remained constant at 125 mM [K].

breast epithelium = details: 20 μM luminal, cited from earlier work
[2] = system: Malignant and transformed cells; assay: Cell membrane potential, potentiometric fluorescent probe (FIG. 7), malignant and transformed cells; format: cell-based, human; details: estradiol present in the culture medium; −31 to −35 mV in its absence
Procedure: (§1) Measurements were made using a potentiometric fluorescent probe, and ratiometric measurements, which are calibrated using valinomycin and [K^+]-gradients. Ψs were measured in the presence (closed circles) and absence (open circles) of estradiol (the active, metabolite of estrogen). Each symbol is the mean measurement. The upper error bar is the standard error of the mean, and the lower error bar is the 95% confidence level for the observations. The addition of estrogen to cultured breast epithelial cells results in an instantaneous increase in Ψ (data not shown) as well as the transepithelial potential see. FIG. 8. Transepithelial potential (VT) of an epithelium is the sum of the apical (luminal) cell membrane potential (VA) and the basolateral (abluminal) cell membrane potential (VBL). Therefore VT=VA+VBL (changes in VA and/or VBL will therefore alter VT or transepithelial potential). […] Malignant and transformed cells have a Ψ of between −31 and −35 mV in the absence of estradiol and approximately 50 mV when estradiol is present in the culture medium.

[3] = system: benign human breast epithelial cells; assay: Transepithelial potential of monolayers in Ussing chambers (FIG. 8), benign epithelia; format: cell-based; details: increasing doses 0 to 0.8 μM
Procedure: (§2) It should be noted, that the instantaneous response, illustrated in FIG. 8, is greater in malignant epithelia, whereas the chronic or sustained exposure to estradiol results in a lower increase in TEP (transepithelial, electropotential) in malignant cells. Concurrent measurement of surface electropotential and impedance allow the more accurate diagnosis of cancer. […] The cells were grown, as monolayers on Millipore filters and grew to confluence in 7 to 10 days. The epithelia were then mounted in modified Using chambers and the TEP was measured using a voltage clamp. Increasing doses of estradiol between 0 and 0.8 μM were added (x-axis). The transepithelial potential was measured after each addition and the TEP was measured (y-axis). The different dose response is apparent for benign and malignant epithelia. Malignant epithelia have a lower TEP but undergo an instantaneous increase in TEP of approximately 9 mV (becomes more electronegative and reaches a level of <−6 mV) after exposure to only 0.1 μM estradiol and then depolarize to approximately −2 mV with increasing doses of estradiol up to about 0.5 μM. […] 0.3 μM and then remain persistently elevated (higher electro negativity), unlike the malignant epithelia, with increasing doses of estradiol.

[4] = system: benign breast epithelial cells; assay: Cell membrane potential, potentiometric fluorescent probe (FIG. 7), benign cells; format: cell-based, human; details: estradiol added to the culture media; approximately −50 mV in its absence
Procedure: as §1

[5] = system: malignant human breast epithelial cells; assay: Transepithelial potential of monolayers in Ussing chambers (FIG. 8), malignant epithelia; format: cell-based
Procedure: as §2

O=c1[nH]cc(F)c(=O)[nH]1 [5-fluorouracil]
effect on transepithelial potential (VT) (distal colon): did not cause a reduction in VT

CNNC [DMH, 1,2 dimethylhydrazine]
VA (apical membrane voltage) (colonocyte cell membrane; after 6 weeks of treatment, from −74.9 mV): −61.4 mV | VA (apical membrane voltage) (colonocyte cell membrane; by 20 weeks of treatment): −34 mV

CC[N+](CC)(CC)CC [TEA]
effect on short circuit current (Isc) [1]: abrupt increase in Isc

N=C(N)NC(=O)c1nc(Cl)c(N)nc1N [amiloride]
increase in transepithelial resistance (breast epithelium): 17% | depolarization of the transepithelial potential (change) (breast epithelium; from −5.9±0.5 mV, mean±SEM): +3.1±0.5 mV

C[C@]12CC[C@@H]3c4ccc(O)cc4CC[C@H]3[C@@H]1CC[C@@H]2O [estradiol, 17-β-estradiol]
cell membrane potential (Ψ) [2]: approximately 50 mV | dose at which the TEP response peaks [3]: ~0.3 µM | cell membrane potential (Ψ) [4]: ~−70 mV | TEP level reached ([5]; 0.1 μM): < −6 mV | instantaneous increase in TEP ([5]; 0.1 μM): approximately 9 mV | TEP after depolarization with increasing doses ([5]; up to about 0.5 μM): approximately −2 mV
